Reference: publication PMC2346451 (PLoS ONE, 2008)
Where two headings read alike, the source gives them in different places.

Assays:
rat TRPV1 (rTRPV1) = rat TRPV1 (rTRPV1) (Rattus norvegicus, UniProt O35433); assay: Whole-cell patch clamp of rat TRPV1 expressed in HEK-293T cells; format: cell-based; conditions: for Increase of agonist-evoked current prior to onset of inhibition: citral 1 mM, n = 8
Experimental: (§1) Transformed human embryonic kidney-293 (HEK-293T) cells were grown in Dulbecco's modified Eagle's medium (DMEM)+F-12 supplemented with 10% fetal calf serum, and 1% penicillin/streptomycin in 5% CO2 at 37°C. Cells grown to 90% confluence in 35 mm Petri dishes were transiently transfected with plasmid DNA encoding a TRP channel construct (1 µg). Rat TRPV1 (rTRPV1) was cloned into an enhanced green fluorescent protein-containing vector (pTracer-CMV2; Invitrogen, Carlsbad, CA). Chicken TRPV1 (cTRPV1), the chicken rat TRPV1 chimera (crcTRPV1), rat TRPV2 (rTRPV2), mouse TRPV3 (mTRPV3), mouse TRPV4 (mTRPV4), rat TRPM8 (rTRPM8), and rat TRPA1 (rTRPA1), were cloned into pcDNA3 and co-transfected with enhanced green fluorescent protein (0.1 µg) to follow expression. The cTRPV1 and crcTRPV1 clones were kindly provided by Dr. David Julius. Recordings were carried out 24–36 hours after transfection. Cells were split via trypsin EDTA, plated on glass coverslips at 5–10% confluence, and used 2–3 hours later.
(§2) Electrophysiological experiments were performed using the whole-cell patch-clamp technique at room temperature. Modified Ringer's solution with low chloride and nominal calcium contained (in mM): 130 sodium hydroxide, 5 potassium chloride, 1 magnesium chloride, 10 sodium 4-(2-hydroxyethyl)-1-piperazineethanesulfonic acid, 10 2-(N-morpholino)ethanesulfonic acid, and 20 glucose (pH 7.4; 310 milli-osmolar). […] 2 mM calcium chloride was included in the external solution where noted. To activate TRPV1, the modified Ringer's solution was made at pH 5 (low pH solution) and the chloride concentration was kept to a minimum to prevent contamination of the TRPV1 currents with acid-activated chloride currents. For recordings from heterologously expressing cells, the internal pipette solution contained (in mM): 125 cesium-Methanesulfonate, 10 cesium (1.2-bis(o-aminophenoxy)ethane-N,N,N',N'-tetraacetic acid, 8 sodium chloride, 4 magnesium adenosine triphosphate, and 10 HEPES (pH 7.2; 290 mOSM; nominal free calcium concentrations). For TRPA1 and dorsal root ganglion recordings, the internal pipette solution contained (in mM): 110 cesium-Methanesulfonate, 0.5 cesium4BAPTA, 8 sodium chloride, 0.2 calcium chloride, 4 magnesium-ATP, 4 sodium-GTP, and 10 4-(2-hydroxyethyl)-1-piperazineethanesulfonic acid (pH 7.2; 290 mOSM; 100 nM free calcium internal). MaxChelator was used to calculate the free calcium concentration (http://www.stanford.edu/cpatton/maxc.html).
(§3) Recordings were obtained using an Axopatch 200B amplifier, Digidata 1322A analog-to-digital converter, and pClamp 8.01 software (Molecular Devices, Union City, CA). Data were low-pass filtered at 2 kHz and digitized at 5 kHz. Borosilicate glass pipettes (World Precision Instruments, Sarasota, FL) were typically 3 MΩ pipette resistance after fire polishing. Cell capacitance was measured for each cell, and access resistance compensated to ∼80%. Recordings were begun ∼5 minutes after initial rupture to ensure initial steady state conditions. Current-voltage (I-V) relations were obtained using a ramp protocol. Voltage ramps (400 ms) from −100 to +40 or +100 mV were applied every 1–2 seconds and the holding potential was either −70 mV or 0 mV (see Figure Legends). A 40 ms step was added at the beginning and end of the ramp (i.e. at −100 mV, +40 mV or +100 mV). Liquid junction potentials were not corrected.
The dose response curves were fit with the Hill equation, where [drawing 8] and [A] is the concentration of agonist or blocker, N is the Hill coefficient, and KD is the [A] for Imeasured/Imax = 0.5. The term apparent dissociation constant is used in place of the half concentration of excitation and inhibition. […] Averaged data are presented as mean±standard error (S.E.) throughout. Statistical analysis included paired and unpaired Student's t-test comparisons of the data; p values are reported in the text.

mouse TRPV4 (mTRPV4) = target: T1, mouse TRPV4 (mTRPV4) (Mus musculus, UniProt Q9EPK8); assay: Whole-cell patch clamp of mouse TRPV4 expressed in HEK-293T cells; format: cell-based; parameters: key to Agonist efficacy: Ø - not activated
T1 construct: expressed in transfected cells; host or cells: HEK-293T
T1 sequence (Q9EPK8 whole entry): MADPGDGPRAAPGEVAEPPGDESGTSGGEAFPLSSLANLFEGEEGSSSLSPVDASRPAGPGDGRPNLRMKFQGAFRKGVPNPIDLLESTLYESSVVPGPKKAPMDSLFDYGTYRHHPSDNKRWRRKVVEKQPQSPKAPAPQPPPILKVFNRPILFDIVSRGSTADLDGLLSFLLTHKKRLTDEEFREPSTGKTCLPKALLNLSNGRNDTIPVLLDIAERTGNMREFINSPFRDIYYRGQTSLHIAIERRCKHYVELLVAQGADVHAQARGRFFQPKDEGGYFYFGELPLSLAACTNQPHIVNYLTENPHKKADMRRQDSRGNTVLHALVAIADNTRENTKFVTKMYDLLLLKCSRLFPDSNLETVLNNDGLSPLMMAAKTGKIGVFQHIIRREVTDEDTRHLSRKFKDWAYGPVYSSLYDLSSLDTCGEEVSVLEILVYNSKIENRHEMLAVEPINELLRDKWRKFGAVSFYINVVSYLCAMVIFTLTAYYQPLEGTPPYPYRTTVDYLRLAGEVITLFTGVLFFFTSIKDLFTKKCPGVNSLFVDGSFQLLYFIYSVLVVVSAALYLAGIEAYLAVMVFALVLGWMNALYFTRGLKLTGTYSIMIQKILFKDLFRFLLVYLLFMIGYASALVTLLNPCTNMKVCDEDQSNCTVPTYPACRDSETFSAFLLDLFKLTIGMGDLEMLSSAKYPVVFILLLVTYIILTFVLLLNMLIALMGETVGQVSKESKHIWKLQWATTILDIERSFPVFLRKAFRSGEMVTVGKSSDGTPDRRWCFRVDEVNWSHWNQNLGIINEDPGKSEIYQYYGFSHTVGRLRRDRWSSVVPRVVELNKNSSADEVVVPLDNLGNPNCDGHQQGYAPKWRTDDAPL
Experimental: as §1, §2
as §3, with “corrected. […]” for “corrected.”

Chicken TRPV1 (cTRPV1) = assay: Whole-cell patch clamp of chicken TRPV1 expressed in HEK-293T cells; format: cell-based
Experimental: as §1
(§4) Electrophysiological experiments were performed using the whole-cell patch-clamp technique at room temperature. […]
(§5) Recordings were obtained using an Axopatch 200B amplifier, Digidata 1322A analog-to-digital converter, and pClamp 8.01 software (Molecular Devices, Union City, CA). […] Cell capacitance was measured for each cell, and access resistance compensated to ∼80%. […]

[1] = test system: chicken rat TRPV1 chimera (crcTRPV1, CRC V2–V4); assay: Whole-cell patch clamp of chicken rat TRPV1 chimera in HEK-293T cells; format: cell-based; conditions: n = 6
Experimental: as §1, §4, §5

[2] = no reference given; cited from earlier work
[3] = in humans; cited from earlier work

Sequence of rat TRPV1 (rTRPV1) (O35433 whole entry): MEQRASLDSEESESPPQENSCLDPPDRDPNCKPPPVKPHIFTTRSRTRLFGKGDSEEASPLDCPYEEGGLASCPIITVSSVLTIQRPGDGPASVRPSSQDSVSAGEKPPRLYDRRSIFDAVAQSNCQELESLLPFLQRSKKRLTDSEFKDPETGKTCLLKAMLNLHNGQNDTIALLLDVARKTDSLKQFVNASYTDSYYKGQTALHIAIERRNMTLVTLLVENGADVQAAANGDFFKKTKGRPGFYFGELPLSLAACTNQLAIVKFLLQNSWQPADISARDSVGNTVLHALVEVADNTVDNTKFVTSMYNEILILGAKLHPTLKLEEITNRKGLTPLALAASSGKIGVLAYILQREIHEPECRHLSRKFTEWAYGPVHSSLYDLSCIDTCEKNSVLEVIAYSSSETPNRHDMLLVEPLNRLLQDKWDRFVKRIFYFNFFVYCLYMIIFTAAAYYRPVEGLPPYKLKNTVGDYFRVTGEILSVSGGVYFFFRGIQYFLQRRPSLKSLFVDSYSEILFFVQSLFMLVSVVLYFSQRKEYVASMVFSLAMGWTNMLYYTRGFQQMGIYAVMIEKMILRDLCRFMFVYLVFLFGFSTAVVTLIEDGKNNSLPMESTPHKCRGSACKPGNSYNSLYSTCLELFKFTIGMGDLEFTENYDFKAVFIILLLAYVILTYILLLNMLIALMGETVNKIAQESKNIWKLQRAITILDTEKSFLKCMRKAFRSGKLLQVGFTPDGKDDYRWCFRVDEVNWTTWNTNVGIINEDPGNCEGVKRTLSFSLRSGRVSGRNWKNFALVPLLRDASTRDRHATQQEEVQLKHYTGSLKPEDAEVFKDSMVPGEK

For `CC(C)=CCCC(C)=CC=O` [citral, 3,7-dimethyl-2,6-octadienal], the “Reversibility of citral inhibition of agonist-evoked current” value (rat TRPV1 (rTRPV1)) was “essentially irreversible”, the “pH 5-evoked TRPV1 current remaining after citral washout” value (rat TRPV1 (rTRPV1); 30 seconds after citral washout, n = 5) was 0.2±0.1% and the “Hill coefficient (activation)” value (rat TRPV1 (rTRPV1); +40 mV) was 2.9. For the same molecule, the “Increase of agonist-evoked current prior to onset of inhibition” value (rat TRPV1 (rTRPV1); +40 mV) was 1.6±0.2 fold, the “Increase of agonist-evoked current prior to onset of inhibition” value (rat TRPV1 (rTRPV1); −100 mV) was 1.8±0.3 fold and the Kd (rat TRPV1 (rTRPV1); citral activation, +40 mV, nominal external calcium, read-out: Activation KD, app) was 417 µM. For the same molecule, the Kd (rat TRPV1 (rTRPV1); citral activation, −40 mV, nominal external calcium, read-out: Activation KD, app) was 465 µM, the “Hill coefficient (inhibition)” value (rat TRPV1 (rTRPV1); citral block of pH5-evoked current) was 1.3 and the Kd (rat TRPV1 (rTRPV1); citral block of pH5-evoked current, read-out: Inhibition KD, app) was 187 µM. For the same molecule, the “Agonist efficacy IpH5/Icitral (1 mM)” value (rat TRPV1 (rTRPV1); fold larger, −40 mV, n = 3) was “IpH5/Icitral (1 mM) 28±8 fold larger (n = 3; −40 mV)”, the “Time for >50% inhibition of peak TRP current in continued presence of citral” value (rat TRPV1 (rTRPV1); n = 9) was ≤ 14 s and the “Hill coefficient (activation)” value (rat TRPV1 (rTRPV1); −40 mV) was 2.7. For the same molecule, the “Increase of inward ITRPV1 above baseline” value (rat TRPV1 (rTRPV1); −40 mV) was 14 fold, the Agonist efficacy (mouse TRPV4 (mTRPV4)) was “Ø” and the “Reversibility of citral inhibition of agonist-evoked current” value (mouse TRPV4 (mTRPV4); 4α-phorbol-12, 13-didecanoate-evoked) was “rapidly reversed”. For the same molecule, the “Effect of citral addition on agonist-induced current” value (mouse TRPV4 (mTRPV4); 4α-phorbol-12, 13-didecanoate-induced, n = 9) was “not increased”, the “Hill coefficient (inhibition)” value (mouse TRPV4 (mTRPV4); citral block of 4α-phorbol-12, 13-didecanoate-evoked current) was 0.9 and the Kd (mouse TRPV4 (mTRPV4); read-out: Inhibition KD, app) was 32 µM. For the same molecule, the “Activation of cTRPV1 current” value (Chicken TRPV1 (cTRPV1); n = 6) was “did not activate”, the “Effect on cTRPV1 currents activated by pH 5 solution” value (Chicken TRPV1 (cTRPV1); pH 5) was “reversibly inhibited” and the “Activation of CRC V2–V4 chimera currents” value [1] was “restored citral activation”. For the same molecule, the “log P (oil/water) coefficient” value [2] was “three” and the “Concentration at which therapeutic effects have been attributed” value [3] was 1 to 100 µM.
